Measured values as given in paper PMC8949893, “Chemical Synthesis, Pharmacokinetic Properties and Biological Effects of JM-00266, a Putative Non-Brain Penetrant Cannabinoid Receptor 1 Inverse Agonist” (International Journal of Molecular Sciences, 2022).

Columns and labels:
mice [1] = assay: Food intake in 24-h food-deprived mice; format: in vivo; conditions: ACEA 1 mg/kg i.p.; for Cumulative 3-h food intake, co-administration with ACEA: Rimonabant 10 mg·kg−1, JM-00266 20 mg·kg−1
Method: For food intake experiments, mice were food-deprived for 24 h before being submitted to an i.p. injection of ACEA (1 mg·kg^−1). […] Cumulative food intake was measured every hour over a period of 3 h from refeeding.

mice [2] = assay: Body (rectal) temperature measurement; format: in vivo; conditions: for Effect on hypothermic response to ACEA: pre-treatment 20 min before ACEA 1 mg·kg−1, Rimonabant 10 mg·kg−1, JM-00266 20 mg·kg−1, t = 30 min
Method: Mice rectal temperature was assessed using a VT4810 controller (Vertex Technology Corp., New Taipei City, Taiwan) adapted with a mouse rectal probe. In the first experiment, the impact of anandamide (10 mg·kg^−1) on body temperature was recorded during 30 min on animals injected either 20 min earlier with vehicle or JM-00266 (20 mg·kg^−1).

murine CB1R = target: T1, murine CB1R (Mus musculus, UniProt P47746); assay: GloSensor cAMP functional assay in CB1R-transfected HEK293T/17 cells; format: cell-based
T1 construct: host or cells: HEK293T/17
Method: GloSensor™ cAMP assay designed by Promega (Charbonnières-les-Bains, France) was used to monitor activation of CB1R. HEK293T/17 cells obtained from the American Type Cell Culture Collection (LGC Promochem, Molsheim, France) were seeded at 30,000 cells per well on poly-D-lysine coated 96-well plates (BD Biosciences, Le Pont de Claix, France). They were grown in Dulbecco’s Modified Eagle Medium (DMEM, Waltham, MA, USA) containing 2 mM glutamax and 10% fetal bovine serum. Twenty-four hours later, cells were transiently co-transfected with 50 ng per well of pcDNA3-mouse CB1R (plasmid #13391 supplied by Addgene, Cambridge, MA, USA) which was a gift from Mary E. Abood (California Pacific Medical Center Research Institute, San Francisco, California) and pGlo™-22F cAMP plasmid-luciferase (100 ng per well) allowing these cells to produce light proportionally to intracellular CB1R-dependent cAMP level. Transfection was performed using the Fugene®HD transfection reagent (Promega) for 24 h according to the manufacturer’s instructions. Mock transfections were performed with the empty vector pcDNA3. Twenty-four hours after transfection, cells were equilibrated for 2 h with a CO2-independent medium (Gibco®, Life Technologies, Courtaboeuf, France) supplemented with the GloSensor™ cAMP reagent before adding tested compounds. When a steady-state basal signal was obtained, cells were incubated for 10 min with 1 µM forskolin (Sigma) at room temperature to enhance the intracellular basal cAMP level. Then increasing concentrations of JM-00266 (0.1 µM to 1 mM) were added in the reaction medium in the presence or absence of anandamide (0.1 µM to 1 µM) and luminescence was measured for 20 min with a Victor 3V plate reader (Perkin Elmer, Courtaboeuf, France). […] When GloSensor™ cAMP assays were carried out in the presence of 0.1 µg·mL^−1 pertussis toxin (Sigma), this compound was added in the incubation medium 24 h before incubation with forskolin. All assays were performed in duplicate and each experiment was repeated three times. Results were expressed as the percentage of forskolin-stimulated luciferase activity. The EC50 values were generated using the Sigma Plot software.

[3] = Plasma kinetic profile after i.p., oral or intravenous administration; format: in vivo, mice; conditions: for Maximal drug plasma concentration: n = 4
Method: (§1) At 1, 2, 4 and 8 h post-administration, animals were killed by cervical dislocation and blood was collected from the vena cava into tubes containing heparin and centrifuged immediately at 6500× g for 10 min at 4 °C. For determination of tissue distribution, brain, liver and adipose tissue were collected 4 h post-gavage. Plasma and tissue samples were directly extracted for further analysis by Liquid chromatography coupled to tandem mass spectrometry (LC-MS/MS).
(§2) Tissues were homogenized with a mini-bead beater (BioSpec Products, Bartlesville, OK) in 10 volumes of acetonitrile containing 15 ng of internal standard, JM-00252. Blood samples were centrifuged at 6500× g during 10 min 4 °C and 5 µL of plasma were diluted in 10 volumes of acetonitrile containing 15 ng of internal standard. Then, each homogenate of tissue or plasma was centrifuged for 10 min at 6500× g and the supernatant was recovered and carefully transferred to new glass tubes. Finally, the extract was injected into a 1200 LC system coupled to a 6460-QqQ MS/MS system equipped with a JetStream ESI source (Agilent technologies, Les Ulis, France). Separation was achieved on a Poroshell 120 EC-C8 2.1 mm × 100 mm, 2.7 µm column (Agilent technologies) at a flow rate of 0.4 mL.min^−1, 55 °C, with a linear gradient of (solvent A) water containing 1 mM ammonium formate and 0.2% formic acid and (solvent B) methanol containing 1 mM ammonium formate and 0.2% formic acid and as follows: 50% B for 1 min, up to 100% B in 4 min, and then maintained at 100% for 2 min. The acquisition was performed in positive Single Reaction Monitoring (SRM) mode (source temperature: 300 °C, nebulizer gas flow rate was 10 L·min^−1, 15 psi, sheath gas flow 7 L·min^−1, temperature 225 °C, capillary 4000 V, nozzle 1500 V). […] Results are expressed as ng·g^−1 for tissues and ng·mL^−1 for plasma.

[4] = tested on: visceral adipose tissue explants; assay: In vitro lipolysis: glycerol release by adipose tissue explants from treated mice; conditions: explants from mice injected with JM-00266 10 mg·kg−1 4 h before sacrifice, 1 h culture
Method: In vitro experiments. Overnight-fasted mice were injected i.p. with JM-00266 (mg·kg^−1) or vehicle. Four hours later, mice were anesthetized with pentobarbital (50 mg·kg^−1) and epididymal adipose tissue was collected, rinsed in a warm medium (DMEM-HAM/F12) supplemented with 1% BSA, and dissected into ~10 mg pieces. Then, 5–6 explants were incubated in a 5% CO2 atmosphere at 37 °C under slight agitation in 1 mL of the same medium. Free glycerol in the culture medium was determined after 1 h of incubation using a colorimetric assay (glycerol FS, DiaSys).

[5] = Tissue distribution 4 h after gavage; format: in vivo; conditions: mice, 4 h after gavage in oil, 10 mg·kg−1
Method: as §1, §2

C57BL/6 wild type mice [6] = assay: Oral glucose tolerance test (OGTT) in wild type mice; format: in vivo
Method: (§3) To test acute effects of JM-00266 on glucose metabolism and their specificity to CB1R, C57BL/6 wild type mice and CB1R^−/− mice fasted for 6 h were subjected to an oral glucose tolerance test (OGTT, 2 g·kg^−1 glucose) and to an insulin tolerance test (ITT) using 0.5 UI·kg^−1 insulin (Actrapid, Novo Nordisk, La Défense, France) 10 min after i.p. injection of JM-00266 (10 mg·kg^−1) or vehicle. For both tests, glycemia was monitored during 120 min post-injection with a My Life Pura TM glucose meter (Ypsomed, Paris, France) directly on a blood drop from the tail. Corresponding AUC0–2 h were calculated.

Brain/plasma ratio (B/P) = format: in vivo; conditions: mice; for Effect of the administration route on distribution in brain and plasma: 10 mg·kg−1, i.p. vs oral; for Kp: mouse, brain, intraperitoneal
Method: as §2
Brain/plasma ratios (B/P) were determined as previously described. […] Blood and brain were collected and directly extracted for further analysis by LC-MS/MS.

mice [7] = assay: In vivo lipolysis: plasma glycerol appearance after BRL37344; conditions: JM-00266 i.p. 4 h before BRL37344 5 mg·kg−1 i.p.
Method: In vivo experiments. Overnight-fasted mice were injected i.p. with JM-00266 (mg·kg^−1) or vehicle. Four hours later, mice were injected i.p. with the specific ß3-adrenergic receptor agonist, BRL37344 (5 mg·kg^−1). Blood samples (~25 µL) were collected from tails in tubes containing EDTA (Sarstedt, Nümbrecht, Germany) at times 0, 15, 30, 45 and 60 min after BRL37344 injection to measure plasma glycerol appearance using a colorimetric assay (glycerol FS, DiaSys, Condom, France).

C57BL/6 wild type mice [8] = assay: Insulin tolerance test (ITT); format: in vivo; conditions: 10 mg·kg−1 i.p. 10 min before insulin 0.5 UI·kg−1
Method: as §3

CB1R−/− mice = assay: Oral glucose tolerance test (OGTT) in CB1R−/− mice; format: in vivo; conditions: 10 mg·kg−1 i.p. 10 min before glucose gavage
Method: as §3

mice [9] = assay: Open field test (anxiety-related behavior); format: in vivo; conditions: 10 mg·kg−1 i.p. 30 min before, 10 min exploration
Method: Anxiety-related behavior was assessed using the open field test (OF; Mouse Open Field Arena ENV-510; Med Associates Inc., Fairfax, VT, USA). […] The two regions were defined by grid lines that divided each box into the center and periphery, with each of the four lines being 11 cm from each wall.

mice [10] = assay: Gastro-intestinal transit (charcoal marker); format: in vivo
Method: Short-term effects of JM-00266 on gastro-intestinal transit were tested as an indicator of peripheral CB1R activity. Transit was measured by administering a non-absorbed marker (10% charcoal suspension in 5% gum arabic) as previously described.

[11] = 10 mg·kg−1, i.p. or oral, DMSO/Tween 80 aqueous solution, at maximal absorption time point

T1 sequence (P47746 whole entry): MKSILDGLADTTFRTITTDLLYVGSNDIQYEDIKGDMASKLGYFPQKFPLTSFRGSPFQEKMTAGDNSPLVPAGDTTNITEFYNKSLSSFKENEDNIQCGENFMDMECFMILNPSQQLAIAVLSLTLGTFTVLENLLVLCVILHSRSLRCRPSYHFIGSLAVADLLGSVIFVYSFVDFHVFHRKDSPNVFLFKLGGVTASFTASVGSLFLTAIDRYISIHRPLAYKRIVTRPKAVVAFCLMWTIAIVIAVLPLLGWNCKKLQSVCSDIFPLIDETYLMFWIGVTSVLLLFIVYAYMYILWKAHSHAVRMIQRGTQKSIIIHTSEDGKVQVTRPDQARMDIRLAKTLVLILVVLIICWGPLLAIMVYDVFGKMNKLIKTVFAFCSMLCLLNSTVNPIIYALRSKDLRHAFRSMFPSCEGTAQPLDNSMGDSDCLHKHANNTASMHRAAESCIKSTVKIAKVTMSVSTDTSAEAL

For CCCCC/C=C\C/C=C\C/C=C\C/C=C\CCCC(=O)NCCCl.O [ACEA, Arachidonyl-2′-chloroethylamide hydrate], the “Cumulative 3-h food intake, agonist alone” value (mice [1]) was “no effect on food intake” and the “Effect on rectal temperature, agonist alone” value (mice [2]; ACEA 1 mg·kg−1, t = 30 min) was “hypothermic response”.

For CSc1ccc(C2C(N3C(=O)c4ccccc4C3=O)C(=O)N2c2ccc(SC)cc2)cc1 (stereo not shown) [JM-00266, 1,4-di-(4-méthylthiophenyl)-3-phthaloylazetidin-2-one], the “Effect on cAMP formation, compound alone” value (murine CB1R; HEK293T/17 cells transfected with murine CB1R, 0.1 µM to 1 mM) was “dose-dependent increase in cAMP formation”, the EC50 (murine CB1R; HEK293T/17 cells transfected with murine CB1R, forskolin 1 µM, GloSensor luminescence, read-out: EC50, increase in cAMP formation (inverse agonism)) was 249 µM and the “cAMP response with increasing concentrations of anandamide” value (murine CB1R; anandamide 0.1 µM to 1 µM) was “lost”. The “cAMP response in the presence of pertussis toxin” value (murine CB1R; pertussis toxin 0.1 µg·mL−1 added 24 h before) was “lost”, the “Cumulative 3-h food intake, co-administration with ACEA” value (mice [1]) was “not observed” and the “Plasma clearance compared with Rimonabant” value ([3]; intravenous administration) was “slightly higher clearance”. The “Time of peak drug plasma concentration” value ([3]; mice, i.p. 10 mg·kg−1, DMSO/Tween solution) was 30 min, the “Maximal drug plasma concentration” value ([3]; mice, i.p. 10 mg·kg−1, mean ± SEM) was 378 ± 27 ng/mL and the “Time of peak drug plasma concentration” value ([3]; mice, oral 10 mg·kg−1, dissolved in oil) was 60 min. For the same compound, the “Maximal drug plasma concentration” value ([3]; mice, oral 10 mg·kg−1, mean ± SEM) was 203 ± 18 ng/mL, the “Glycerol release by visceral adipose tissue explants vs control” value [4] was “higher than in the control” and the “Concentrations in plasma and tissues compared with Rimonabant” value [5] was “lower concentrations in plasma and tissues than Rimonabant”. The “Tissue distribution (plasma, brain, liver, visceral adipose tissue)” value [5] was “preferentially accumulated in the liver and the adipose tissue whereas brain concentration remained very low”, the “Plasma insulin levels during OGTT” value (C57BL/6 wild type mice [6]; 10 mg·kg−1 i.p.) was “lower than vehicle” and the “Glucose tolerance (OGTT) vs vehicle” value (C57BL/6 wild type mice [6]; 10 mg·kg−1 i.p. 10 min before glucose gavage 2 g·kg−1) was “improved glucose tolerance”. The “Brain/plasma ratio (B/P)” value (Brain/plasma ratio (B/P); [11]) was “significantly lower”, the “Effect of the administration route on distribution in brain and plasma” value (Brain/plasma ratio (B/P)) was “not modified” and the Kp (Brain/plasma ratio (B/P); [11]) was 0.3 to 0.5. The “Effect on anandamide-induced decrease in rectal temperature” value (mice [2]; JM-00266 20 mg·kg−1 20 min before anandamide 10 mg·kg−1, 30 min recording) was “not able to counteract the decrease in rectal temperature”, the “Effect on hypothermic response to ACEA” value (mice [2]) was “had no effect” and the “ß-adrenergic-induced glycerol production (plasma glycerol) vs vehicle” value (mice [7]) was “increased”. The “Glycemia during ITT (insulin sensitivity)” value (C57BL/6 wild type mice [8]) was “lower glycemia over time compared to vehicle treated mice”, the “Glucose tolerance (OGTT) vs vehicle” value (CB1R−/− mice) was “failed to improve glucose tolerance” and the “Open field: locomotor activity (total ambulatory distance)” value (mice [9]) was “did not alter”. For the same compound, the “Open field: number of center entries” value (mice [9]) was “did not alter”, the “Open field: time spent in the center” value (mice [9]) was “did not alter” and the “Effect on anandamide-induced slowing down of gastro-intestinal transit” value (mice [10]; JM-00266 10 mg·kg−1 10 min before anandamide 10 mg·kg−1) was “abrogated”.

In the case of Cc1c(C(=O)NN2CCCCC2)nn(-c2ccc(Cl)cc2Cl)c1-c1ccc(Cl)cc1 [Rimonabant, reference compound], the “Cumulative 3-h food intake, co-administration with ACEA” value (mice [1]) is reported as “strong hypophagia”, the “Bioavailability compared with JM-00266, whatever the administration route” value ([3]; mice, 10 mg·kg−1, i.p. or oral) is reported as “far higher” and the “Tissue distribution (plasma, brain, liver, visceral adipose tissue)” value [5] is reported as “preferentially accumulated in the liver and the adipose tissue whereas brain concentration remained very low”. For the same compound, the “Effect of the administration route on distribution in brain and plasma” value (Brain/plasma ratio (B/P)) was “strongly affected”, the Kp (Brain/plasma ratio (B/P); [11]) was greater than 1 and the “Effect on hypothermic response to ACEA” value (mice [2]) was “fully inhibited the hypothermic response”. The “Open field: locomotor activity (total ambulatory distance)” value (mice [9]) was “did not significantly alter”, the “Open field: number of center entries” value (mice [9]) was “did not significantly alter” and the “Open field: time spent in the center” value (mice [9]) was “significantly decreased”.

In the case of CCCCC/C=C\C/C=C\C/C=C\C/C=C\CCCC(=O)NCCO [anandamide, Arachidonylethanolamide, reference compound], the “Effect on rectal temperature, agonist alone” value (mice [2]; anandamide 10 mg·kg−1) is reported as “decrease in rectal temperature” and the “Effect on gastro-intestinal transit, agonist alone” value (mice [10]; anandamide 10 mg·kg−1) is reported as “slowing down of gastro-intestinal transit”.
